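Assay format: 96-well plates, 48-hour exposure. Abbreviation: GI50, concentration required for 50% inhibition of growth.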 The source made the active and inactive calls. Cut-off read from the data, not from the text of the source: active = GI50 up to about 1.1 µM and inactive = higher.
Experiments:
Assay in all cases: NCI anticancer screen, dose series, 48 h
[1] = system: NCI-H23
[2] = system: EKVX
[3] = system: DMS-114
[4] = system: RXF 631
[5] = system: Malme-3M
[6] = system: OVCAR-8
[7] = system: RXF 393
[8] = system: SNB-75
[9] = system: SK-MEL-2
[10] = system: M14
[11] = system: OVCAR-4
[12] = system: SN12C
[13] = system: MOLT-4
[14] = system: IGROV-1
[15] = system: SF-539
[16] = system: CAKI-1
[17] = system: HOP-62
[18] = system: HOP-18
[19] = system: SNB-78
[20] = system: LXFL 529
[21] = system: SR
[22] = system: SF-295
[23] = system: HCC 2998
[24] = system: SK-MEL-28
[25] = system: HT-29
[26] = system: SF-268
[27] = system: NCI-H460
[28] = system: HCT-116
[29] = system: OVCAR-3
[30] = system: RPMI-8226
[31] = system: UO-31
[32] = system: NCI-H522
[33] = system: COLO 205
[34] = system: ACHN
[35] = system: HL-60
[36] = system: XF498
[37] = system: CCRF-CEM
[38] = system: TK-10
[39] = system: SK-OV-3
[40] = system: A498
[41] = system: U-251
[42] = system: SNB-19
[43] = system: OVCAR-5
[44] = system: K562
[45] = system: DLD-1
[46] = system: SW-620
[47] = system: A549
[48] = system: NCI-H226
[49] = system: M19-MEL
[50] = system: KM12
[51] = system: 786-0
[52] = system: UACC-62
[53] = system: UACC-257
[54] = system: KM-20L2
[55] = system: HOP-92
[56] = system: LOX IMVI
[57] = system: SK-MEL-5
[58] = system: HCT-15
[59] = system: DMS-273

CC(C)C(=O)NS(=O)(=O)c1ccccc1
GI50 [1]: > 100 µM (inactive) | GI50 [2]: > 100 µM (inactive) | GI50 [3]: > 100 µM (inactive) | GI50 [4]: > 100 µM (inactive) | GI50 [5]: > 100 µM (inactive) | GI50 [6]: > 100 µM (inactive) | GI50 [7]: > 100 µM (inactive) | GI50 [8]: > 100 µM (inactive) | GI50 [9]: > 100 µM (inactive) | GI50 [10]: > 100 µM (inactive) | GI50 [11]: > 100 µM (inactive) | GI50 [12]: > 100 µM (inactive) | GI50 [13]: > 100 µM (inactive) | GI50 [14]: > 100 µM (inactive) | GI50 [15]: > 100 µM (inactive) | GI50 [16]: > 100 µM (inactive) | GI50 [17]: > 100 µM (inactive) | GI50 [18]: > 100 µM (inactive) | GI50 [19]: > 100 µM (inactive) | GI50 [20]: > 100 µM (inactive) | GI50 [21]: > 100 µM (inactive) | GI50 [22]: > 100 µM (inactive) | GI50 [23]: > 100 µM (inactive) | GI50 [24]: > 100 µM (inactive) | GI50 [25]: > 100 µM (inactive) | GI50 [26]: > 100 µM (inactive) | GI50 [27]: > 100 µM (inactive) | GI50 [28]: > 100 µM (inactive) | GI50 [29]: > 100 µM (inactive) | GI50 [30]: > 100 µM (inactive) | GI50 [31]: > 100 µM (inactive) | GI50 [32]: > 100 µM (inactive) | GI50 [33]: > 100 µM (inactive) | GI50 [34]: > 100 µM (inactive) | GI50 [35]: > 100 µM (inactive) | GI50 [36]: > 100 µM (inactive) | GI50 [37]: > 100 µM (inactive) | GI50 [38]: > 100 µM (inactive) | GI50 [39]: > 100 µM (inactive) | GI50 [40]: > 100 µM (inactive) | GI50 [41]: > 100 µM (inactive) | GI50 [42]: > 100 µM (inactive) | GI50 [43]: > 100 µM (inactive) | GI50 [44]: > 100 µM (inactive) | GI50 [45]: > 100 µM (inactive) | GI50 [46]: > 100 µM (inactive) | GI50 [47]: > 100 µM (inactive) | GI50 [48]: > 100 µM (inactive) | GI50 [49]: > 100 µM (inactive) | GI50 [50]: > 100 µM (inactive) | GI50 [51]: > 100 µM (inactive) | GI50 [52]: > 100 µM (inactive) | GI50 [53]: > 100 µM (inactive) | GI50 [54]: > 100 µM (inactive) | GI50 [55]: > 100 µM (inactive) | GI50 [56]: > 100 µM (inactive)

CC(C)c1cccc(C(C)C)c1NC(=S)NN=C1C=C(C(C)(C)C)C(=O)C(C(C)(C)C)=C1
GI50 [1]: 16.9 µM (inactive) | GI50 [2]: 33.5 µM (inactive) | GI50 [3]: 7.26 µM (inactive) | GI50 [4]: 9.95 µM (inactive) | GI50 [5]: 27.3 µM (inactive) | GI50 [6]: 17.8 µM (inactive) | GI50 [7]: 16.7 µM (inactive) | GI50 [8]: 21.2 µM (inactive) | GI50 [9]: 20.2 µM (inactive) | GI50 [10]: 41.6 µM (inactive) | GI50 [11]: 17.3 µM (inactive) | GI50 [12]: 22.2 µM (inactive) | GI50 [13]: 28.7 µM (inactive) | GI50 [14]: 26 µM (inactive) | GI50 [15]: 19.9 µM (inactive) | GI50 [17]: 16.5 µM (inactive) | GI50 [20]: 32.3 µM (inactive) | GI50 [21]: 35.3 µM (inactive) | GI50 [22]: 31 µM (inactive) | GI50 [23]: 23.5 µM (inactive) | GI50 [24]: 34.4 µM (inactive) | GI50 [57]: 21 µM (inactive) | GI50 [25]: 33 µM (inactive) | GI50 [26]: 34.3 µM (inactive) | GI50 [27]: 25.6 µM (inactive) | GI50 [28]: 3.59 µM (inactive) | GI50 [29]: 22.5 µM (inactive) | GI50 [30]: 27.2 µM (inactive) | GI50 [31]: 29.6 µM (inactive) | GI50 [58]: 37.3 µM | GI50 [33]: 20.1 µM (inactive) | GI50 [34]: 34.4 µM (inactive) | GI50 [35]: 26.1 µM (inactive) | GI50 [36]: 22.8 µM (inactive) | GI50 [37]: 22.7 µM (inactive) | GI50 [38]: 30.4 µM (inactive) | GI50 [59]: 29.9 µM (inactive) | GI50 [40]: 17.9 µM (inactive) | GI50 [41]: 16.2 µM (inactive) | GI50 [42]: 22.3 µM (inactive) | GI50 [44]: 23.3 µM (inactive) | GI50 [45]: 36.4 µM (inactive) | GI50 [46]: 28.5 µM (inactive) | GI50 [47]: 19.9 µM (inactive) | GI50 [48]: 10 µM (inactive) | GI50 [51]: 18.9 µM (inactive) | GI50 [52]: 20.3 µM (inactive) | GI50 [53]: 18.9 µM (inactive) | GI50 [54]: 24.2 µM (inactive) | GI50 [56]: 18.2 µM (inactive)

Cc1nc(-c2nc(C)c(C(=O)/C=C/c3ccc(N(C)C)cc3)s2)sc1C(=O)/C=C/c1ccc(N(C)C)cc1
GI50 [1]: > 100 µM (inactive) | GI50 [2]: > 100 µM (inactive) | GI50 [3]: > 100 µM (inactive) | GI50 [4]: > 100 µM (inactive) | GI50 [5]: 66.4 µM (inactive) | GI50 [6]: > 100 µM (inactive) | GI50 [7]: > 100 µM (inactive) | GI50 [9]: > 100 µM (inactive) | GI50 [10]: 38.5 µM (inactive) | GI50 [11]: 46 µM (inactive) | GI50 [12]: > 100 µM (inactive) | GI50 [13]: > 100 µM (inactive) | GI50 [14]: 31 µM (inactive) | GI50 [15]: 41.7 µM (inactive) | GI50 [16]: > 100 µM (inactive) | GI50 [17]: > 100 µM (inactive) | GI50 [20]: 34.8 µM (inactive) | GI50 [21]: > 100 µM (inactive) | GI50 [22]: 31.9 µM (inactive) | GI50 [23]: > 100 µM (inactive) | GI50 [24]: 67.3 µM (inactive) | GI50 [25]: > 10 µM (inactive) | GI50 [26]: > 100 µM (inactive) | GI50 [27]: > 100 µM (inactive) | GI50 [28]: 29.3 µM (inactive) | GI50 [29]: > 100 µM (inactive) | GI50 [31]: > 100 µM (inactive) | GI50 [32]: 31.3 µM (inactive) | GI50 [58]: 37.8 µM | GI50 [33]: > 100 µM (inactive) | GI50 [34]: > 100 µM (inactive) | GI50 [35]: 46 µM (inactive) | GI50 [36]: 23.4 µM (inactive) | GI50 [37]: > 100 µM (inactive) | GI50 [38]: > 100 µM (inactive) | GI50 [39]: > 100 µM (inactive) | GI50 [59]: 39.1 µM (inactive) | GI50 [41]: > 100 µM (inactive) | GI50 [42]: 64.1 µM (inactive) | GI50 [43]: > 100 µM (inactive) | GI50 [44]: 33.4 µM (inactive) | GI50 [45]: 29.5 µM (inactive) | GI50 [46]: 31.2 µM (inactive) | GI50 [47]: 44.2 µM (inactive) | GI50 [48]: > 100 µM (inactive) | GI50 [49]: 51.1 µM (inactive) | GI50 [50]: 40.9 µM (inactive) | GI50 [51]: 54 µM (inactive) | GI50 [52]: 18.5 µM (inactive) | GI50 [53]: > 100 µM (inactive) | GI50 [54]: > 100 µM (inactive) | GI50 [56]: 38.3 µM (inactive)

From ChEMBL document CHEMBL1201862, “PubChem BioAssay data set” (2004)
